In patent US10391106B2, “19-nor C3, 3-disubstituted C21-C-bound heteroaryl steroids and methods of use thereof” (Sage Therapeutics, Inc., priority 2013, dated 2019):

Tests used:
[1] = biological target: GABAA-R (rat brain cortical membranes); assay: Steroid inhibition of [35S]-TBPS binding (radioligand displacement); conditions: in the presence of 5 μM GABA
Description: Steroid Inhibition of TBPS Binding
[35S]-t-Butylbicyclophosphorothionate (TBPS) binding assays using rat brain cortical membranes in the presence of 5 μM GABA has been described (Gee et al, J. Pharmacol. Exp. Ther. 1987, 241, 346-353; Hawkinson et al, Mol. Pharmacol. 1994, 46, 977-985; Lewin, A. H et al., Mol. Pharmacol. 1989, 35, 189-194).
Briefly, cortices are rapidly removed following decapitation of carbon dioxide-anesthetized Sprague-Dawley rats (200-250 g). The cortices are homogenized in 10 volumes of ice-cold 0.32 M sucrose using a glass/teflon homogenizer and centrifuged at 1500×g for 10 min at 4° C. The resultant supernatants are centrifuged at 10,000×g for 20 min at 4° C. to obtain the P2 pellets. The P2 pellets are resuspended in 200 mM NaCl/50 mM Na-K phosphate pH 7.4 buffer and centrifuged at 10,000×g for 10 min at 4° C. This washing procedure is repeated twice and the pellets are resuspended in 10 volumes of buffer. Aliquots (100 μL) of the membrane suspensions are incubated with 3 nM [^35S]-TBPS and 5 μL aliquots of test drug dissolved in dimethyl sulfoxide (DMSO) (final 0.5%) in the presence of 5 μM GABA. The incubation is brought to a final volume of 1.0 mL with buffer. […] Following a 90 min incubation at room temp, the assays are terminated by filtration through glass fiber filters (Schleicher and Schuell No. 32) using a cell harvester (Brandel) and rinsed three times with ice-cold buffer. Filter bound radioactivity is measured by liquid scintillation spectrometry. Non-linear curve fitting of the overall data for each drug averaged for each concentration is done using Prism (GraphPad). […] The concentration of test compound producing 50% inhibition (IC50) of specific binding and the maximal extent of inhibition (Imax) are determined for the individual experiments with the same model used for the overall data and then the means ±SEM.s of the individual experiments are calculated.
Various compounds are or can be screened to determine their potential as modulators of [^35S]-TBPS binding in vitro. These assays are or can be performed in accordance with the above discussed procedures.

GABAA receptor α1β2γ2 = biological target: T1, GABAA receptor α1β2γ2 (Homo sapiens, UniProt P14867+P47870); assay: Patch clamp electrophysiology, Qpatch in Ltk cells; type: cell-based; conditions: 10 μM test article, potentiation of GABA EC20 (2 μM) current, read-out: GABA (α1β2γ2) Qpatch in Ltk, % efficacy at 10 μM
T1 construct: expressed in transfected cells; host or cells: LTK cells (stably transfected)
T1 sequence (P14867 28-456): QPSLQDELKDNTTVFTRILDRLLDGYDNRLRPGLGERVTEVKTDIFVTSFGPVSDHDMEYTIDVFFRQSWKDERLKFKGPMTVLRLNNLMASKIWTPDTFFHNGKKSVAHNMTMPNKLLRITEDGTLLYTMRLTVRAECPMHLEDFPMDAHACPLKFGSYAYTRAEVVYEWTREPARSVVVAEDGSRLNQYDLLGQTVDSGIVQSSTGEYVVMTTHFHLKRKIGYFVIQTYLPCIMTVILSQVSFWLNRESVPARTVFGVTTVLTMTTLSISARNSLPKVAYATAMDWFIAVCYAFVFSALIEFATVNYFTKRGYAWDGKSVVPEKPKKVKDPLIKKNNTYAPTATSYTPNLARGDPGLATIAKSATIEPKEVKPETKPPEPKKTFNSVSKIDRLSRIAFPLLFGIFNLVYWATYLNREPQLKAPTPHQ
T1 sequence (P47870 25-512 limits assumed): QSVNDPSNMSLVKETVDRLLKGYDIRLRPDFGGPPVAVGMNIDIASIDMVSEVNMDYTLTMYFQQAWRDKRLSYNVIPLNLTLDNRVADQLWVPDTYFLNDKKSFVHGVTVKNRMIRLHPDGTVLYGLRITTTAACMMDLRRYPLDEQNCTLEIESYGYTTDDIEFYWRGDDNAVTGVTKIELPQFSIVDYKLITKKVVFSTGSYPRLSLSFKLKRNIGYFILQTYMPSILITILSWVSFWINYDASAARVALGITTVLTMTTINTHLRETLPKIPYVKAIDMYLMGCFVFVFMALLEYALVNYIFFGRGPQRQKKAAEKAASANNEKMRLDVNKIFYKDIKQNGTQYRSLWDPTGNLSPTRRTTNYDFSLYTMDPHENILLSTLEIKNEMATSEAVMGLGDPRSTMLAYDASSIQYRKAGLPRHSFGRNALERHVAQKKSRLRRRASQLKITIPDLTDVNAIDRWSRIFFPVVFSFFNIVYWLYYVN
T1 sequence (P18507 40-475 partner): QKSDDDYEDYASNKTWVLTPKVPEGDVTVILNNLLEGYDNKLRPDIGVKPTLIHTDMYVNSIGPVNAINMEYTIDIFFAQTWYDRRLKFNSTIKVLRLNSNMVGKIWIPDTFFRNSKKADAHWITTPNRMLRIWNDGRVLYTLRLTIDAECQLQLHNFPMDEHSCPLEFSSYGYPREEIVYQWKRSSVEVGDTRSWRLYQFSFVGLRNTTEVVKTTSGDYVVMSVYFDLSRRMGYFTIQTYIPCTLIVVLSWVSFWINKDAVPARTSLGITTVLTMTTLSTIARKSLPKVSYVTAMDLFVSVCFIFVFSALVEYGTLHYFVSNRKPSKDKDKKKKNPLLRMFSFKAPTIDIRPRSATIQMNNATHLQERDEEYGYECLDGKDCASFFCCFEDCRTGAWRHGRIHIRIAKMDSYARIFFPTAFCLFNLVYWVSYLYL
Description: (§1) Patch Clamp Electrophysiology of Recombinant α1β2γ2 and α4β3δ GABAA Receptors
(§2) Cellular electrophysiology is used to measure the pharmacological properties of our GABAA receptor modulators in heterologous cell systems. Each compound is tested for its ability to affect GABA mediated currents at a submaximal agonist dose (GABA EC20=2 μM). LTK cells are stably transfected with the α1β2γ2 subunits of the GABA receptor and CHO cells are transiently transfected with the α4β3δ subunits via the Lipofecatamine method. Cells were passaged at a confluence of about 50-80% and then seeded onto 35 mm sterile culture dishes containing 2 ml culture complete medium without antibiotics or antimycotics. Confluent clusters of cells are electrically coupled (Pritchett et al, Science, 1988, 242, 1306-1308.). Because responses in distant cells are not adequately voltage clamped and because of uncertainties about the extent of coupling (Verdoorn et al., Neuron 1990, 4, 919-928.), cells were cultivated at a density that enables the recording of single cells (without visible connections to other cells).
Whole cell currents were measured with HEKA EPC-10 amplifiers using PatchMaster software or by using the high throughput QPatch platform (Sophion). Bath solution for all experiments contained (in mM): NaCl 137 mM, KCl 4 mM, CaCl2 1.8 mM, MgCl2 1 mM, HEPES 10 mM, D-Glucose 10 mM, pH (NaOH) 7.4.. In some cases 0.005% cremophor was also added. Intracellular (pipette) solution contained: KCl 130 mM, MgCl2 1 mM, Mg-ATP 5 mM, HEPES 10 mM, EGTA 5 mM, pH 7.2. During experiments, cells and solutions were maintained at room temperature (19° C.-30° C.). For manual patch clamp recordings, cell culture dishes were placed on the dish holder of the microscope and continuously perfused (1 ml/min) with bath solution. After formation of a Gigaohm seal between the patch electrodes and the cell (pipette resistance range: 2.5 MΩ-6.0 MΩ; seal resistance range:>1 GΩ) the cell membrane across the pipette tip was ruptured to assure electrical access to the cell interior (whole-cell patch-configuration). For experiments using the QPatch system, cells were transferred as suspension to the QPatch system in the bath solution and automated whole cell recordings were performed.
Cells were voltage clamped at a holding potential of −80 mV. For the analysis of test articles, GABA receptors were stimulated by 2 μM GABA after sequential pre-incubation of increasing concentrations of the test article. Pre-incubation duration was 30 s and the duration of the GABA stimulus was 2 s. Test articles were dissolved in DMSO to form stock solutions (10 mM). Test articles were diluted to 0.01, 0.1, 1, and 10 μM in bath solution. All concentrations of test articles were tested on each cell. The relative percentage potentiation was defined as the peak amplitude in response to GABA EC20 in the presence of the test article divided by the peak amplitude in response to GABA EC20 alone, multiplied by 100.

GABAA receptor α4β3δ = biological target: T2, GABAA receptor α4β3δ (Homo sapiens, UniProt P28472+P48169); assay: Patch clamp electrophysiology, manual patch in CHO cells; type: cell-based; conditions: 10 μM test article, potentiation of GABA EC20 (2 μM) current, read-out: GABA (α4β3δ) Manual patch in CHO, % efficacy at 10 μM
T2 construct: expressed in transfected cells; host or cells: CHO cells (transiently transfected, Lipofectamine)
T2 sequence (P48169 36-554): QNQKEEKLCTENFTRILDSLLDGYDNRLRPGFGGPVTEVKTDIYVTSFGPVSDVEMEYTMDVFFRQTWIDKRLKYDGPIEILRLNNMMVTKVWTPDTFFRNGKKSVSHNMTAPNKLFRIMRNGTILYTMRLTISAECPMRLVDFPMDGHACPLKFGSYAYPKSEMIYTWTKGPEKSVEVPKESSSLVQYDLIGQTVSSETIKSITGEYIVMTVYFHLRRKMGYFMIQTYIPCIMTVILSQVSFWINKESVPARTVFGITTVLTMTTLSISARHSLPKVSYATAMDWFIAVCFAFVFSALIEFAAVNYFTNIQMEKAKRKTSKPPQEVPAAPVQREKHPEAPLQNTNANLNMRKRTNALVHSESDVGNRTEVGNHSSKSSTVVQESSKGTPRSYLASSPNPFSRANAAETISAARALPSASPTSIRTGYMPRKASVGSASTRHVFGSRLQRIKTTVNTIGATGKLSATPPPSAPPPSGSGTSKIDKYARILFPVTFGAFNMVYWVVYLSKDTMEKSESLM
T2 sequence (P28472 26-473): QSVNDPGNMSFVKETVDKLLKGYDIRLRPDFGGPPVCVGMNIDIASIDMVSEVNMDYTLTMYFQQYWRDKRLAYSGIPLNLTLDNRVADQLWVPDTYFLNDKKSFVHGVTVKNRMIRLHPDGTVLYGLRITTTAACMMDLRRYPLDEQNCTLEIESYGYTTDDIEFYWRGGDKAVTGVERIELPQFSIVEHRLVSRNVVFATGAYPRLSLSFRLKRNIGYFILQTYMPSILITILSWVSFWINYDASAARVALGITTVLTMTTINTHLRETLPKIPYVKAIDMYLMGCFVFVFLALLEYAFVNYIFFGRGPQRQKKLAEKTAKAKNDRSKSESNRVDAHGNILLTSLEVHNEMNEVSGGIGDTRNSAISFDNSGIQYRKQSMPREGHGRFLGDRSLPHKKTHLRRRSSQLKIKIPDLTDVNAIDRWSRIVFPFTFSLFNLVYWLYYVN
T2 sequence (O14764 25-452 partner): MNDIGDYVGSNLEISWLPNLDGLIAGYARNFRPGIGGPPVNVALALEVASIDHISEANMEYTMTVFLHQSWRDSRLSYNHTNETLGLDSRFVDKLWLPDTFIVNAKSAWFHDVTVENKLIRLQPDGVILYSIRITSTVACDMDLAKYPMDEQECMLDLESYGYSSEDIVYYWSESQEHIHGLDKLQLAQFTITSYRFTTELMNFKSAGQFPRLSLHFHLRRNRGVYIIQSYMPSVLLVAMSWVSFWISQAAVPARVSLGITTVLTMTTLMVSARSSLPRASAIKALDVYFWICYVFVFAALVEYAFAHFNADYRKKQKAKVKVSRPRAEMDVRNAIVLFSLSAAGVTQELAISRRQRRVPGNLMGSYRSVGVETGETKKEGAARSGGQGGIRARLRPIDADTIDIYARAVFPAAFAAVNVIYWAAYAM
Description: as §1, §2
Whole cell currents were measured with HEKA EPC-10 amplifiers using PatchMaster software or by using the high throughput QPatch platform (Sophion). Bath solution for all experiments contained (in mM): NaCl 137 mM, KCl 4 mM, CaCl2 1.8 mM, MgCl2 1 mM, HEPES 10 mM, D-Glucose 10 mM, pH (NaOH) 7.4.. […]

SMILES	IC50 [1]	Emax at 10 µM (GABAA receptor α1β2γ2)	Emax at 10 µM (GABAA receptor α4β3δ)
Cc1nc(CC(=O)[C@H]2CC[C@H]3[C@@H]4CC[C@@H]5C[C@](C)(O)CC[C@@H]5[C@H]4CC[C@]23C)oc1C [SA-1]	< 50 nM	> 500%	10 to 100%
C[C@@]1(O)CC[C@H]2[C@H](CC[C@@H]3[C@@H]2CC[C@]2(C)[C@@H](C(=O)Cc4ccccn4)CC[C@@H]32)C1 [SA-2]	< 50 nM	100 to 500%	100 to 500%
Cn1ccnc1CC(=O)[C@H]1CC[C@H]2[C@@H]3CC[C@@H]4C[C@](C)(O)CC[C@@H]4[C@H]3CC[C@]12C [SA-3]	100 to 500 nM	100 to 500%	
Cc1cccc(CC(=O)[C@H]2CC[C@H]3[C@@H]4CC[C@@H]5C[C@](C)(O)CC[C@@H]5[C@H]4CC[C@]23C)n1 [SA-4]	< 50 nM	100 to 500%	
C[C@@]1(O)CC[C@H]2[C@H](CC[C@@H]3[C@@H]2CC[C@]2(C)[C@@H](C(=O)Cc4ccccc4)CC[C@@H]32)C1 [SA-5]	< 50 nM		
C[C@@]1(O)CC[C@H]2[C@H](CC[C@@H]3[C@@H]2CC[C@]2(C)[C@@H](C(=O)Cc4nccs4)CC[C@@H]32)C1 [SA-7]	< 50 nM	> 500%	
Cc1nc(CC(=O)[C@H]2CC[C@H]3[C@@H]4CC[C@@H]5C[C@](C)(O)CC[C@@H]5[C@H]4CC[C@]23C)sc1C [SA-8]	50 to 100 nM		
C[C@@]1(O)CC[C@H]2[C@H](CC[C@@H]3[C@@H]2CC[C@]2(C)[C@@H](C(=O)Cc4cnccn4)CC[C@@H]32)C1 [SA-9]		100 to 500%	
C[C@@]1(O)CC[C@H]2[C@H](CC[C@@H]3[C@@H]2CC[C@]2(C)[C@@H](C(=O)Cc4cccnc4)CC[C@@H]32)C1 [SA-10]	< 50 nM		
